Test results as given in patent US20050282743A1, “Molecular interactions in cells” (Arbor Vita Corporation, priority 2001, published 2005).
Ends that are not written are not given here. Peptide text beside a SMILES is read from it. * marks the point of attachment. Biotin = O=C1N[C@H]2[C@H](CS[C@H]2CCCCC(=O)*)N1

What was measured:
Assay in all cases: G' assay (10 uM PL peptide), results of TABLE 7 and TABLE 12
Type in all cases: binding
[1] = target: T1, PDZ protein (GST-PDZ fusion) (Homo sapiens, UniProt Q96RT1); conditions: PDZ Erbin, PDZ Domain 1
T1 construct: made in house; host or cells: E. coli (DH5alpha, BL21 or JM109)
How it was run: (§1)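 Biotin-PL peptide (N-term label), 10 uM vs GST-PDZ; protein 5 ug/ml by default. A450 nm binned: 1 = 0-1, 2 = 1-2, 3 = 2-3, 4 = 3-4, 5 = >4 on >2 repeats, 0 = no binding.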

[2] = target: T2, PDZ protein (GST-PDZ fusion) (Homo sapiens, UniProt P29475); conditions: PDZ NOS1, PDZ Domain 1
T2 construct: made in house; host or cells: E. coli (DH5alpha, BL21 or JM109)
How it was run: as §1

[3] = target: T3, PDZ protein (GST-PDZ fusion) (Homo sapiens, UniProt Q5T2W1)
T3 construct: made in house; host or cells: E. coli (DH5alpha, BL21 or JM109)
T3 sequence (Q5T2W1 1-519): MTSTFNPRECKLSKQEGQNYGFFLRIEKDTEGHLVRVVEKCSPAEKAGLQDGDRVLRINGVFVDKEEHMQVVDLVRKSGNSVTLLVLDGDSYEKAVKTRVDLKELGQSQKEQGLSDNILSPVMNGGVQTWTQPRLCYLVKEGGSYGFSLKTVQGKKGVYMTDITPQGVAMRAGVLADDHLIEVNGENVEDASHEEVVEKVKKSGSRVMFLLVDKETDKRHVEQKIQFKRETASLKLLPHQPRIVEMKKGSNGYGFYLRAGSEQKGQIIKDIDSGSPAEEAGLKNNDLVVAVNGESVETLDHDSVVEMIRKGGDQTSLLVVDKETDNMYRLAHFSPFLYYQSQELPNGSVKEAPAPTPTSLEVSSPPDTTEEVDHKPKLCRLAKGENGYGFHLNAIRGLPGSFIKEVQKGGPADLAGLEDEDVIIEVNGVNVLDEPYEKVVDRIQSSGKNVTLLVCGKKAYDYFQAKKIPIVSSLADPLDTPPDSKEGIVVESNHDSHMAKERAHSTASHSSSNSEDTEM
How it was run: as §1

[4] = target: T4, PDZ protein (GST-PDZ fusion) (Homo sapiens, UniProt O14745)
T4 construct: made in house; host or cells: E. coli (DH5alpha, BL21 or JM109)
T4 sequence (O14745 1-358): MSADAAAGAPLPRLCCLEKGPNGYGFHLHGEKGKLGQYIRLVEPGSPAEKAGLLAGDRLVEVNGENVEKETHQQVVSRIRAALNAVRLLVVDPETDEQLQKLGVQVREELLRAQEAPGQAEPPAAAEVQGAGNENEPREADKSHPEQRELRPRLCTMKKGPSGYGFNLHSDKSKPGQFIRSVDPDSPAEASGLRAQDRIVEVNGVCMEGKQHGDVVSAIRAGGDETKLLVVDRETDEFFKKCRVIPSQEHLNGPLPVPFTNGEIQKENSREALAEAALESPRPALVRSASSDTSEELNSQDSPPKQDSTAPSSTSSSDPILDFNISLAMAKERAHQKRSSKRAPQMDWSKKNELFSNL
How it was run: as §1

[5] = target: T5, PDZ protein (GST-PDZ fusion) (Homo sapiens, UniProt Q07157); conditions: PDZ ZO-1, PDZ Domain 1
T5 construct: made in house; host or cells: E. coli (DH5alpha, BL21 or JM109)
How it was run: as §1

[6] = target: T6, PDZ protein (GST-PDZ fusion) (Homo sapiens, UniProt O14641); conditions: PDZ DVL2, PDZ Domain 1
T6 construct: made in house; host or cells: E. coli (DH5alpha, BL21 or JM109)
T6 sequence (O14641 1-736): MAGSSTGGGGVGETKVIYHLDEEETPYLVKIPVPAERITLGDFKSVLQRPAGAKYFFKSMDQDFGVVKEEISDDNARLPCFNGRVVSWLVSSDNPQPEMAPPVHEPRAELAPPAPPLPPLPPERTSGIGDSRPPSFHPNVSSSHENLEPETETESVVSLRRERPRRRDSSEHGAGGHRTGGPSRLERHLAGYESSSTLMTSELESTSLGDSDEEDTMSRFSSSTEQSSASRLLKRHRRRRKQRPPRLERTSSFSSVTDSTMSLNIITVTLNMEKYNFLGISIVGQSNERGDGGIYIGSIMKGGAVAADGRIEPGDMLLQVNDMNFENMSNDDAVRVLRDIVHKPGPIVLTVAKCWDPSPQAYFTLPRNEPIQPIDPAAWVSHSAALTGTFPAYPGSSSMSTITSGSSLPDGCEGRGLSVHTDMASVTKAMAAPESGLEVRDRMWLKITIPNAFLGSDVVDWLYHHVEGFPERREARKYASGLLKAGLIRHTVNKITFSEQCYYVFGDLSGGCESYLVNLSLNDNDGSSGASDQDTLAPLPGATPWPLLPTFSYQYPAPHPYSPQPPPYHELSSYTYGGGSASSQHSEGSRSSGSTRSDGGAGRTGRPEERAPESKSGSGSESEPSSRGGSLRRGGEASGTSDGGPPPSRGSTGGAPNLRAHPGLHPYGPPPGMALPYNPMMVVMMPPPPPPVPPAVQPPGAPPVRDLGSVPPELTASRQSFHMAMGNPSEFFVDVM
How it was run: as §1

T1 sequence (Q96RT1 whole entry, the tested form may be a part): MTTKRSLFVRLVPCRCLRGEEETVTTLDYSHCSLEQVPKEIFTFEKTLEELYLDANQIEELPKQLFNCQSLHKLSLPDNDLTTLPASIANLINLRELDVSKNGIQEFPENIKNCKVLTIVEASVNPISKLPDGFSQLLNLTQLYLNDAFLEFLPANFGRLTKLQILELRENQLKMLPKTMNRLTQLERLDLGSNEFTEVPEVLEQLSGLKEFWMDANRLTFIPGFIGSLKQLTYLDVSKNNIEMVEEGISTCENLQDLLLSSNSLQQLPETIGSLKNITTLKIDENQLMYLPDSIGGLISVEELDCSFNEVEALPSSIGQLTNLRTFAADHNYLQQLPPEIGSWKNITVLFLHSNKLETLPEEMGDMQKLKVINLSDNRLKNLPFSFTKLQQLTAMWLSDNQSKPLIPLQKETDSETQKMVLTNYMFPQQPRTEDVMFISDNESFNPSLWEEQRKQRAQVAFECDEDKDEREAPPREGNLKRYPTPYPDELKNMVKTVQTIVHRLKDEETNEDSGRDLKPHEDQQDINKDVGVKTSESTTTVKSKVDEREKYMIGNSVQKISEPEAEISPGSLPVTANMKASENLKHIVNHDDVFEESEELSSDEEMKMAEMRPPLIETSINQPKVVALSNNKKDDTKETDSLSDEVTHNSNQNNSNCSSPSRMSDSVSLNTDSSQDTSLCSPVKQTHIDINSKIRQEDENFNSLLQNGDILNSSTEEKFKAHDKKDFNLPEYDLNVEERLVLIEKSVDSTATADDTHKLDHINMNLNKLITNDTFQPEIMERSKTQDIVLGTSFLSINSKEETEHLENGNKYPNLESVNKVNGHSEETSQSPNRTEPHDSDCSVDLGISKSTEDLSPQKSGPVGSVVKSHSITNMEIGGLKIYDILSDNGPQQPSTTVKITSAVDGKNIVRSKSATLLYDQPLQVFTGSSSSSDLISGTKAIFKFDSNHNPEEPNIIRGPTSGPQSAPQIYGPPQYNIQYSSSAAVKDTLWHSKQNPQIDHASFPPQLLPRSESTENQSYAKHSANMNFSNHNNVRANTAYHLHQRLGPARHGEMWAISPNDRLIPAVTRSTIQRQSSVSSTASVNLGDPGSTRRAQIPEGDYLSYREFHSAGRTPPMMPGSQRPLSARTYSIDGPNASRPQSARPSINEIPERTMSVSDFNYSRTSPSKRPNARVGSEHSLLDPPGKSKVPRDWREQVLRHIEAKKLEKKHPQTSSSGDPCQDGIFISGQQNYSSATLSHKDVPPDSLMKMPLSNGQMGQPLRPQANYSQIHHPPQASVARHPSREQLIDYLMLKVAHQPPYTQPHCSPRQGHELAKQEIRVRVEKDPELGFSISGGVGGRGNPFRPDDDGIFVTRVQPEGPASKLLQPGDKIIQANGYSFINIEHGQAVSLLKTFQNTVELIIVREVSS
T2 sequence (P29475 whole entry, the tested form may be a part): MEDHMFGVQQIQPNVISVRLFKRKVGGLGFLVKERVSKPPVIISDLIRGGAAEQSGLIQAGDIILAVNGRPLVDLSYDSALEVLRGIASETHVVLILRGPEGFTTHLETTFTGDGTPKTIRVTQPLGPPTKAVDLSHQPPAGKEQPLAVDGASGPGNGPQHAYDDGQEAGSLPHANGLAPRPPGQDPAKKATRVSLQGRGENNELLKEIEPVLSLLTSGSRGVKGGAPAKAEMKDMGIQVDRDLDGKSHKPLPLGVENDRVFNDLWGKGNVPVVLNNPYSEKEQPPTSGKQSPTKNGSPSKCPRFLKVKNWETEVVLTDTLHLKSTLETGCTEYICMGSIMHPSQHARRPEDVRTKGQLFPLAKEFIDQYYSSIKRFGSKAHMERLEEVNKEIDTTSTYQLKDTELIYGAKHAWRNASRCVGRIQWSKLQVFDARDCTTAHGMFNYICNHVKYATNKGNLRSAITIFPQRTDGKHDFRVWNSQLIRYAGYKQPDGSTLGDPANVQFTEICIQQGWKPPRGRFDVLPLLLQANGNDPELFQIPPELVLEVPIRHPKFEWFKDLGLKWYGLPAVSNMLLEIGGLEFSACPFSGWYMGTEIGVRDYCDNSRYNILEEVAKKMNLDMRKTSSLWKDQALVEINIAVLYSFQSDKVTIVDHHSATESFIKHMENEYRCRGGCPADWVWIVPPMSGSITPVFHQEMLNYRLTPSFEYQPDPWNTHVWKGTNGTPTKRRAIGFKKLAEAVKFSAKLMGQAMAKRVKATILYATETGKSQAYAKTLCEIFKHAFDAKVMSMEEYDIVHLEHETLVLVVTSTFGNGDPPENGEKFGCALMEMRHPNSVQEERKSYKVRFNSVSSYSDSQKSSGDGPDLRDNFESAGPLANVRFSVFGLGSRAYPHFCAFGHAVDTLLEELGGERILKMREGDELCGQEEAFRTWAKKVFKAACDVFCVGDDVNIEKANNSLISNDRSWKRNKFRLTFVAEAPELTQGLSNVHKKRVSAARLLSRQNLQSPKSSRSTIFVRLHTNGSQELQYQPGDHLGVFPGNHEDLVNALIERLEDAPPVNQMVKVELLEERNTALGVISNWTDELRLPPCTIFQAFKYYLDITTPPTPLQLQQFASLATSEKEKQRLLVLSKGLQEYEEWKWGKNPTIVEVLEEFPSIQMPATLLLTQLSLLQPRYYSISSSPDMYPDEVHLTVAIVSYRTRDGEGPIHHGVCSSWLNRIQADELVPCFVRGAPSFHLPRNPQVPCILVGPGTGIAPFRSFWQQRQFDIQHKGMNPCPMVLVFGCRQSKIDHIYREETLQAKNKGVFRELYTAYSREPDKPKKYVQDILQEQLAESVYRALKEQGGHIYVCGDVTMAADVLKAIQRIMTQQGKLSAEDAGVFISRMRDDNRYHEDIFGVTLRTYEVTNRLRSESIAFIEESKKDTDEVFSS
T5 sequence (Q07157 whole entry, the tested form may be a part): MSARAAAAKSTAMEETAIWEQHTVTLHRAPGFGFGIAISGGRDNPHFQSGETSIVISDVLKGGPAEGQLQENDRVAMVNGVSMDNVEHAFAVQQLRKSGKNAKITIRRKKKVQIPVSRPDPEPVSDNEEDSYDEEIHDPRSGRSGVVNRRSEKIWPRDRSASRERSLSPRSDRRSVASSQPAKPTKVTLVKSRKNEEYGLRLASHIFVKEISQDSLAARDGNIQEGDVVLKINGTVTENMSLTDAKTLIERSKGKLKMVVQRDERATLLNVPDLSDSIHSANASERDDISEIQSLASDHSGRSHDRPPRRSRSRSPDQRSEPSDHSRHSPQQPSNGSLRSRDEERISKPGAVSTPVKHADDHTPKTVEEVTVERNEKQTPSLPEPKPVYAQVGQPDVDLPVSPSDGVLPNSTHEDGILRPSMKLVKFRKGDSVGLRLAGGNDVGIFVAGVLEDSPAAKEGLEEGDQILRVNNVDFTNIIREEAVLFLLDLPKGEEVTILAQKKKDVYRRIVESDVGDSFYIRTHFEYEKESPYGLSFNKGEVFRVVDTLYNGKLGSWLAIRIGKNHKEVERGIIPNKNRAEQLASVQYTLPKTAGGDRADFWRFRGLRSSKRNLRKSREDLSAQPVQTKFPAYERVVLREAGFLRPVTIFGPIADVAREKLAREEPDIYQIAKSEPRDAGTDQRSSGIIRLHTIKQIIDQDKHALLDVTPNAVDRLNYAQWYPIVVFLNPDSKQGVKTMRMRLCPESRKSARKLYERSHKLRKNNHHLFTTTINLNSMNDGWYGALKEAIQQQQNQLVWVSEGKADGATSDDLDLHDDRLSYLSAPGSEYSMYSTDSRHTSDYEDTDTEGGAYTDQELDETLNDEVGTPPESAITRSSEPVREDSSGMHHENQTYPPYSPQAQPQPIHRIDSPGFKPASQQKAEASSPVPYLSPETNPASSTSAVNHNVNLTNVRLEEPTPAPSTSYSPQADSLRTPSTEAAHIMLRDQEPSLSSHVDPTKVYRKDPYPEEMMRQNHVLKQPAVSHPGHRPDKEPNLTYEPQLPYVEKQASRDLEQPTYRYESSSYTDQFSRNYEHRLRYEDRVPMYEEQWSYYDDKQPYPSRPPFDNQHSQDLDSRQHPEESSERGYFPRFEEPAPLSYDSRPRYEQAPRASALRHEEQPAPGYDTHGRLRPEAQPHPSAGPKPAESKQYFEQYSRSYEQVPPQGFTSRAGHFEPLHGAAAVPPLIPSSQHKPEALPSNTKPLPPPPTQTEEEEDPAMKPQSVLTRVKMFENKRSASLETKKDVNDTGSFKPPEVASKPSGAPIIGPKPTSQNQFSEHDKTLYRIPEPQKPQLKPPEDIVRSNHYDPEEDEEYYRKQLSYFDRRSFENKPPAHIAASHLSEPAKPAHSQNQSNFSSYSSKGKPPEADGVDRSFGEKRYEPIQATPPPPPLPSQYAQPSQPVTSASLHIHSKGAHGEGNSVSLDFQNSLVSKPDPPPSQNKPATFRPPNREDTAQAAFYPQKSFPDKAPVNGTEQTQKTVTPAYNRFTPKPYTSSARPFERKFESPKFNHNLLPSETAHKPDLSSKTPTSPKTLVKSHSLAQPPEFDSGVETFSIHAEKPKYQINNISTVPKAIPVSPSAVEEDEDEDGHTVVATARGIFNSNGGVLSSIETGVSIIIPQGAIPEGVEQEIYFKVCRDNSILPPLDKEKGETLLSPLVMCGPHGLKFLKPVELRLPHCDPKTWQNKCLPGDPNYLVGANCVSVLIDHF

Compound | Classification [1] | Classification [2] | Classification [6] | other results
CC(C)C[C@H](NC(=O)[C@H](C)NC(=O)[C@H](CO)NC(=O)CNC(=O)[C@@H](NC(=O)CCCC[C@@H]1SC[C@@H]2NC(=O)N[C@@H]21)[C@@H](C)O)C(=O)N[C@@H](CCC(N)=O)C(=O)N[C@@H](C)C(=O)N[C@@H](Cc1c[nH]c2ccccc12)C(=O)N[C@@H](CCCNC(=N)N)C(=O)N[C@@H](Cc1c[nH]cn1)C(=O)N[C@H](C(=O)N[C@@H](CO)C(=O)N[C@@H](CCCNC(=N)N)C(=O)N[C@@H](CCC(N)=O)C(=O)N[C@@H](C)C(=O)N[C@H](C(=O)N[C@@H](CCC(=O)O)C(=O)N[C@@H](CO)C(=O)N[C@H](C(=O)N[C@H](C(=O)O)C(C)C)[C@@H](C)O)[C@@H](C)O)[C@@H](C)O [HPV E6 #66 (modified)] (Biotin-TGSALQAWRHTSRQATESTV-OH; C-terminus assumed) | 1 (A450 nm 0-1) |  |  | 
CC(C)C[C@H](NC(=O)[C@H](C)NC(=O)[C@@H](NC(=O)[C@@H](NC(=O)[C@H](Cc1c[nH]cn1)NC(=O)[C@H](CC(C)C)NC(=O)CNC(=O)[C@H](CCC(N)=O)NC(=O)CNC(=O)CNC(=O)[C@H](C)NC(=O)[C@H](C)NC(=O)[C@H](CCCNC(=N)N)NC(=O)[C@H](C)NC(=O)[C@H](CO)NC(=O)[C@H](CC(=O)O)NC(=O)[C@H](CC(=O)O)NC(=O)[C@H](Cc1c[nH]c2ccccc12)NC(=O)[C@H](C)NC(=O)CCCC[C@@H]1SC[C@@H]2NC(=O)N[C@@H]21)C(C)C)[C@@H](C)O)C(=O)O [LPAP] (Biotin-AWDDSARAAGGQGLHVTAL-OH; C-terminus assumed) |  | 1 (A450 nm 0-1) |  | Classification ([3]; PDZ PDZK1, PDZ Domain 2, 3, 4): 3 (A450 nm 2-3); Classification ([4]; PDZ EBP50, PDZ Domain 1): 5 (A450 nm of 4 more than 2× repeated); Classification ([4]; PDZ EBP50, PDZ Domain 2): 4 (A450 nm 3-4)
CC(C)C[C@H](NC(=O)CNC(=O)[C@@H](NC(=O)[C@H](CO)NC(=O)[C@H](CC(N)=O)NC(=O)[C@H](Cc1ccccc1)NC(=O)CNC(=O)[C@H](C)NC(=O)[C@H](C)NC(=O)[C@H](Cc1ccccc1)NC(=O)[C@@H](NC(=O)CCCC[C@@H]1SC[C@@H]2NC(=O)N[C@@H]21)[C@@H](C)O)[C@@H](C)O)C(=O)N1CCC[C@H]1C(=O)N[C@@H](Cc1c[nH]cn1)C(=O)N[C@@H](CO)C(=O)N[C@H](C(=O)N[C@H](C(=O)N[C@@H](CCCNC(=N)N)C(=O)N[C@H](C(=O)O)C(C)C)[C@@H](C)O)[C@@H](C)O [Neuroligin] (Biotin-TFAAGFNSTGLPHSTTRV-OH; C-terminus assumed) |  | 1 (A450 nm 0-1) |  | Classification [5]: 1 (A450 nm 0-1); Classification ([4]; PDZ EBP50, PDZ Domain 1): 2 (A450 nm 1-2); Classification ([4]; PDZ EBP50, PDZ Domain 2): 1 (A450 nm 0-1)
CC[C@H](C)[C@H](NC(=O)[C@H](CCC(N)=O)NC(=O)CCCC[C@@H]1SC[C@@H]2NC(=O)N[C@@H]21)C(=O)N[C@@H](CO)C(=O)N1CCC[C@H]1C(=O)NCC(=O)NCC(=O)N[C@@H](CC(C)C)C(=O)N[C@@H](CCC(=O)O)C(=O)N1CCC[C@H]1C(=O)N1CCC[C@H]1C(=O)N[C@@H](CO)C(=O)N[C@@H](CCC(=O)O)C(=O)N[C@@H](CCCCN)C(=O)N[C@@H](Cc1c[nH]cn1)C(=O)N[C@@H](Cc1ccccc1)C(=O)N[C@@H](CCCNC(=N)N)C(=O)N[C@@H](CCC(=O)O)C(=O)N[C@H](C(=O)N[C@@H](CCC(=O)O)C(=O)N[C@H](C(=O)O)C(C)C)[C@@H](C)O [Tax] | 5 (A450 nm of 4 more than 2× repeated) |  |  | 
CC(C)C[C@H](NC(=O)[C@H](CC(=O)O)NC(=O)[C@H](CO)NC(=O)[C@H](CCC(=O)O)NC(=O)CNC(=O)[C@H](Cc1ccc(O)cc1)NC(=O)[C@H](CC(C)C)NC(=O)[C@H](C)NC(=O)[C@H](CO)NC(=O)[C@H](CO)NC(=O)[C@H](Cc1ccccc1)NC(=O)[C@H](C)NC(=O)[C@H](C)NC(=O)[C@H](Cc1ccc(O)cc1)NC(=O)[C@H](CC(=O)O)NC(=O)[C@H](CC(C)C)NC(=O)[C@H](C)NC(=O)CNC(=O)[C@@H]1CCCN1C(=O)[C@@H](NC(=O)CCCC[C@@H]1SC[C@@H]2NC(=O)N[C@@H]21)C(C)C)C(=O)O [a-actinin 2] (Biotin-VPGALDYAAFSSALYGESDL-OH; C-terminus assumed) | 1 (A450 nm 0-1) |  |  | 
CC[C@H](C)[C@H](NC(=O)[C@H](Cc1ccc(O)cc1)NC(=O)[C@H](CC(C)C)NC(=O)[C@H](CCC(N)=O)NC(=O)[C@H](Cc1c[nH]cn1)NC(=O)[C@H](CO)NC(=O)[C@H](C)NC(=O)[C@H](CC(C)C)NC(=O)[C@@H](NC(=O)[C@H](CC(=O)O)NC(=O)[C@H](CCSC)NC(=O)[C@H](Cc1ccccc1)NC(=O)[C@@H]1CCCN1C(=O)[C@H](CCCNC(=N)N)NC(=O)[C@@H](NC(=O)[C@H](CC(C)C)NC(=O)[C@H](CC(N)=O)NC(=O)[C@H](CC(=O)O)NC(=O)[C@@H](NC(=O)[C@H](CO)NC(=O)CCCC[C@@H]1SC[C@@H]2NC(=O)N[C@@H]21)[C@@H](C)O)C(C)C)[C@@H](C)O)C(=O)O [presenilin-2] (Biotin-STDNLVRPFMDTLASHQLYI-OH; C-terminus assumed) |  | 1 (A450 nm 0-1) | 1 (A450 nm 0-1) | Classification [5]: 1 (A450 nm 0-1)
A2AC_HUMAN (Modified) (Biotin-DFRPSFKHILFRRARRGFRQ; not fully specified) |  |  | 3 (A450 nm 2-3) | 
PYSELNYETSHYPASPDSWV (Biotin-PYSELNYETSHYPASPDSWV) [catenin - delta 2] | 4 (A450 nm 3-4) |  |  | 
TQGFPGPATWRRISSLESEV | 4 (A450 nm 3-4) | 1 (A450 nm 0-1) |  | 

Further lines, with some results ahead:

Classification [1] | Classification [2] | Classification [6] | Compound | other results
 | 4 (A450 nm 3-4) | 2 (A450 nm 1-2) | CC[C@H](C)[C@H](NC(=O)[C@H](Cc1ccc(O)cc1)NC(=O)[C@@H](NC(=O)[C@@H]1CCCN1C(=O)[C@H](CCC(N)=O)NC(=O)[C@H](CCC(=O)O)NC(=O)[C@H](CCC(N)=O)NC(=O)[C@H](C)NC(=O)[C@@H](NC(=O)[C@H](CC(C)C)NC(=O)[C@H](CC(C)C)NC(=O)[C@H](CCCNC(=N)N)NC(=O)[C@H](Cc1ccc(O)cc1)NC(=O)[C@H](CCSC)NC(=O)[C@H](C)NC(=O)[C@H](C)NC(=O)[C@@H]1CCCN1C(=O)[C@H](CCSC)NC(=O)[C@@H](NC(=O)[C@H](CCCCN)NC(=O)CCCC[C@@H]1SC[C@@H]2NC(=O)N[C@@H]21)[C@@H](C)O)[C@@H](C)O)C(C)C)C(=O)O [MINT-1] (Biotin-KTMPAAMYRLLTAQEQPVYI-OH; C-terminus assumed) | Classification [5]: 1 (A450 nm 0-1); Classification ([3]; PDZ PDZK-1, PDZ Domain 4): 1 (A450 nm 0-1)
 |  | 2 (A450 nm 1-2) | ALVLIAFCIIRRRPSAYQAL (Biotin-ALVLIAFCIIRRRPSAYQAL) [CD68] | 
 |  | 2 (A450 nm 1-2) | KTMPAAMFRLLTGQETPLYI (Biotin-KTMPAAMFRLLTGQETPLYI) [MINT-2] | Classification ([3]; PDZ PDZK-1, PDZ Domain 4): 1 (A450 nm 0-1)
 |  | 1 (A450 nm 0-1) | KTMPAATYRLLTGQEQPVYL (Biotin-KTMPAATYRLLTGQEQPVYL) [MINT-3] | 
